From patent publication US11485701B2, “Insect repellent compounds and compositions, and methods thereof” (Iowa State University Research Foundation, Inc., priority 2016, dated 2022)

How the values were obtained:
Assay type in all cases: in vivo
[1] = tested on: Northern house mosquitoes (Culex pipiens); assay: Short-term spatial repellency, static air repellency chamber; conditions: for pest or weed control at 0.5 %: Culex pipiens
Summary of the method: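 Adult females 5-7 days post-emergence, ~20 per chamber, exposed in a 9×60 cm glass tube to filter paper treated with compound in acetone, the other end untreated. Distribution scored at 15-150 min as % spatial repellency; acetone controls, four replicates.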

[2] = tested on: Northern house mosquitoes (Culex pipiens); assay: Long-term spatial repellency, static air repellency chamber, filter papers air-dried 5 hours; conditions: air-dried 5 hours; for pest or weed control at 0.5 %: Culex pipiens
Protocol: (§1) Northern house mosquitoes (Culex pipiens), a primary carrier of West Nile virus in eastern North America, were obtained from an established colony in the Medical Entomology Laboratory in the Department of Entomology at Iowa State University of Science and Technology, Ames Iowa. Mosquito rearing was performed by established protocols that are maintained by the Medical Entomology Laboratory. Repellency bioassays were performed with adult female mosquitoes that were 5-7 days post-emergent. […] Mosquitoes, prior to testing, were held at 27° C., 80% relative humidity, and on a 16:8 hr light:dark photoperiod.
Repellency bioassays were performed using a static air repellency chamber, which has been described in various publications by the Pesticide Toxicology Laboratory at Iowa State University of Science and Technology, Ames, Iowa Briefly, a 9-cm×60-cm glass tube was used to monitor the distribution of mosquitoes at 15 min, 30 min, 60 min, 90 min, 120 min, and 150 min after introducing mosquitoes into the static air repellency chamber. Treated filter papers were treated with 1 mL of 0.5% solution in acetone of the terpenoid analogs created in the lab and were exposed to ambient air for 5 hours before they were introduced into the spatial chamber for testing. This is a slight modification of the method described in Example 2, so as to evaluate the residual repellent character of these compounds on a treated surface after 5 hours. One end of the spatial chamber contained a treated filter paper, whereas the other (untreated) end of the spatial chamber was not treated with compound. Controls contained filter papers treated with acetone, the solvent used to make the 0.5% solutions. Each end of the repellency chamber was secured with a 100-mm Petri dish using celluloid tape. After securing the petri dishes with corresponding treated or untreated filter papers to the spatial chamber, mosquitoes were anesthetized with carbon dioxide, and approximately 20 female mosquitoes were placed into each repellency chamber for one replicate. The opening of the spatial repellency chamber was secured with celluloid tape to prevent their escape. Chambers were oriented in opposite directions from the previous replicate to account for any directional effect. Four replicates were performed for data analysis for both the control and treatment groups.
Data for spatial repellency, the percentage repellency, is reported at each of the respective time points in the figures and tables mentioned below in this disclosure. The percentage spatial repellency is the examination of the distribution of mosquitoes and is calculated using the following equation: […]

[3] = tested on: female Aedes aegypti (Orlando strain, 1952); assay: Minimum effective dosage testing, human skin (treated cloth patch); conditions: for Proportion to DEET: average MED relative to DEET; for Minimum Effective Dosage, Average: mean across subjects; for Minimum Effective Dosage, Subject 1 / Minimum Effective Dosage, Subject 2 / Minimum Effective Dosage, Subject 3: treated cloth patch, 1 min test, high dose 1.5 mg/cm^2
Protocol: The test mosquitoes were female Aedes aegypti (Orlando strain, 1952) from the colony maintained at United States Department of Agriculture-Agricultural Research Service-Center for Medical, Agricultural and Veterinary Entomology (USDA-ARS-CMAVE) in Gainesville, Fla. Pupae were obtained from the colony and newly emerged mosquitoes were maintained on 10% sugar water and kept in laboratory cages at an ambient temperature of 28±1° C. and RH of 35-60%. Host seeking behavior was pre-selected in nulliparous female mosquitoes aged 6-10 days, indicated by flight upwind towards a potential host, from stock cages using a hand-draw box and trapped in a collection trap.
After 500 (±10%) females were collected in the trap, they were transferred to a test cage (approximately 59,000 cm^3 with dimensions 45×37.5×35 cm) and allowed to acclimatize for 17.5 (±2.5) min before testing was initiated. Just prior to the experiment, the pieces of treated cloth are removed from the vials and stapled onto card stock tabs (5×3 cm). Each piece of the cards and the assembly were hung on a drying rack using masking tape for 3-5 min. Participants in the study used latex gloves to pull a nylon stocking over their arm. A Velcro™-sealed vinyl sleeve was then placed over the forearm. […] The purpose of the nylon stocking was to produce a barrier between the dried cloth and the skin, thereby avoiding direct contact of chemical to skin. The dried cloth assembly was affixed over the opening in the sleeve and held in place with masking tape. Participants then inserted their arm with the sleeve and patch into a screened cage that contained female Ae. Aegypti mosquitoes. Tests were conducted on each control or treated patch for 1 min. A control patch (acetone solvent only, then dried) was tested prior to the start of experiments and evaluation of the same untreated control patch after every 10 tests. If 5 landings were not received on the control patch in 30 s, then tests were discontinued for 60 min. At the conclusion of testing the control patch was tested again. If five landings were not received within 30 s, the data for the replicate was discarded. When testing a patch treated with a candidate repellent, if approximately 1% or 5 mosquito bites were received during this one minute test, this compound was considered to have failed, i.e., was not repellent at that concentration. If a treated cloth patch received 0-4 bites within a minute, then it was considered as passed, i.e., repellent at that concentration of the test compound. The median concentration patch was tested in the first round and treated patches were then tested successively at higher or lower concentrations depending upon whether the previous patch failed or passed, respectively.
The time interval between each tested patch was <90 seconds until 10 successive tests had been conducted. If appreciable, mortality had occurred during testing, the number of knocked down mosquitoes are estimated and additional female mosquitoes are added to the cage to keep the available mosquitoes at approximately 500. The estimate of the MED was the lowest concentration that passed for each candidate. Observed MED values for each candidate compound were averaged across participants and reported as a mean MED±standard error.

[4] = tested on: Northern house mosquitoes (Culex pipiens); assay: Contact irritancy assay (percent escape from treated chamber); conditions: organza netting treated with 0.5% solution; 10 min; FIG. 14
Protocol: as §1
Organza were cut to approximately 11.5 cm×8 cm to wrap around the inside of the contact irritancy chamber. This piece of organza was treated with 1.5 mL of 0.5% or 0.05% solution of test compound in acetone. This organza was allowed to air-dry for 15 minutes before introducing them into the chamber. Organza sheets were draped around the inside wall of the metallic chamber and fastened to the walls of the chamber with small magnets. […] After ten minutes, the butterfly valve was once again closed and the number of mosquitoes was counted in the clear “counting” chamber. […]

[5] = 0.25 h, filter paper, 1 mL of 0.5% solution in acetone, air-dried 15 min, 15 min after introduction, read-out: Short-term Percentage repellency 15 min
[6] = 1.5 h, filter paper, 1 mL of 0.5% solution in acetone, air-dried 15 min, 90 min, read-out: Short-term Percentage repellency 90 min
[7] = 2.5 h, filter paper, 1 mL of 0.5% solution in acetone, air-dried 15 min, 150 min, read-out: Short-term Percentage repellency 150 min
[8] = 0.25 h, 1 mL of 0.5% solution in acetone, 15 min, read-out: Long-term Percentage repellency 15 min
[9] = 1.5 h, 1 mL of 0.5% solution in acetone, 90 min, read-out: Long-term Percentage repellency 90 min
[10] = 2.5 h, 1 mL of 0.5% solution in acetone, 150 min, read-out: Long-term Percentage repellency 150 min

SMILES | Proportion to DEET [3] | Minimum Effective Dosage, Average [3] [mg/cm^2] | Minimum Effective Dosage, Subject 1 [3] [mg/cm^2] | Minimum Effective Dosage, Subject 2 [3] [mg/cm^2] | Minimum Effective Dosage, Subject 3 [3] [mg/cm^2] | further results
CCN(CC)C(=O)c1cccc(C)c1 [DEET, N,N-diethyl-meta-toluaminde, reference compound] | 1.000 | 0.019 | 0.023 | 0.023 | 0.011 | Short-term percentage repellency 30 min ([1]; 1 mL of 0.5% solution in acetone, 30 minutes): 53.3%; Short-term Percentage repellency 15 min ([1]; filter paper, 1 mL of 0.5% solution in acetone, air-dried 15 min, 15 min after introduction): 20%±15.3; Long-term percentage repellency 30 min ([2]; 0.5% solution, 30 minutes): 22.5%; Long-term Percentage repellency 15 min ([2]; 1 mL of 0.5% solution in acetone, 15 min): 32.5%±14.4
CC(C)=CCCC(C)CCOC(=O)C1CC1 (stereo not shown) [Compound 1035A, citronellyl cyclopropanecarboxylate] | – | – | – | – | – | pest or weed control at 0.5 % [1, 5]: 22.5%; pest or weed control at 0.5 % [1, 6]: 92.5%; pest or weed control at 0.5 % [1, 7]: 90%; Short-term repellency at low concentration, in words ([1]; filter paper treated with 0.1%, FIG. 6): significant levels of repellency; pest or weed control at 0.5 % [2, 8]: 70%; pest or weed control at 0.5 % [2, 9]: 80%; pest or weed control at 0.5 % [2, 10]: 62.5%; Contact irritancy, percentage escape [4]: 80%
O=C(C=Cc1ccccc1)OCCCO [3-hydroxypropyl cinnamate] | 52.632 | 1.000 | 0.750 | 1.500 | 0.750 | –
CC(C)=CCC/C(C)=C/C(=O)OCCCO [3-hydroxypropyl geranate] | 6.579 | 0.125 | 0.187 | 0.094 | 0.094 | –
CC(C)=CCCC(C)CC(=O)OCCCO (stereo not shown) [3-hydroxypropyl citronellate] | 3.702 | 0.070 | 0.094 | 0.094 | 0.023 | –
CC(C)=CCC/C(C)=C/C(=O)OCCO [2-hydroxyethyl geranate] | 13.140 | 0.250 | 0.187 | 0.375 | 0.187 | –
O=C(C=Cc1ccccc1)OCCO [2-hydroxyethyl cinnamate] | – | – | – | – | 0.094 | –
CC(O)COC(=O)C=Cc1ccccc1 (stereo not shown) [2-hydroxypropyl cinnamate] | 19.737 | 0.375 | – | 0.375 | 0.375 | –
CC1CCC(C(C)(C)O)C(O)C1 (stereo not shown) [p-menthane-3,8-diol, reference compound] | – | – | – | – | – | pest or weed control at 0.5 % [1, 5]: 12.5%; pest or weed control at 0.5 % [1, 6]: 12.5%; pest or weed control at 0.5 % [1, 7]: 20%; pest or weed control at 0.5 % [2, 8]: 7.5%; pest or weed control at 0.5 % [2, 9]: 5%; pest or weed control at 0.5 % [2, 10]: 5%; Contact irritancy, percentage escape [4]: approximately 65%
